Measurements published in US11229626B2, “Synergistic nutritional compositions for treating seizures and chronic inflammatory diseases” (CELAGENEX RESEARCH (INDIA) PVT. LTD., priority 2020, dated 2022).

Tested on: PTZ induced rat model
Test: PTZ (pentylene-tetrazole) induced convulsions, anti-convulsant activity in Wistar rats
Type: in vivo
Conditions: male Wistar rats, n=6 per group, 60 mg/kg PTZ intraperitoneally 1 hr after test item; for Straub Tail / Clonic Convulsions / Stupor / Tonic Convulsions: doses per Table 1; for Clonic Convulsions / Stupor / Tonic Convulsions: mean; for Recovery: outcome recovery or death
Method: The purpose of this study is to evaluate the effect of anti-convulsant activity of the test compound in Wistar Rats.
The systemic administration of PTZ is one of the most commonly employed methods for anti-convulsant screening. The preference has been given to this model due to its ease of performance, reliability, ease of expressing results and the shorter time-period to produce convulsions.
60 mg/kg of PTZ was injected per body weight, intraperitoneally 1 hr after the test item administration.
All animals were acclimatized for five days and seizures were induced by administering 60 mg/kg PTZ per body weight, 1 hr after test item administration. Normal control group was injected with phosphate buffer solution.
As Group 1 (Vehicle control), Group 2 served as diseased control, Group 3 was Reference standard and Group 4, Group 5 and Group 6 served as test substance. The dose was administered for short term (single day administration) or long term (14 or 21 days) after acclimatization.
The time was recorded for convulsion phase clonic, tonic and stupor after test administration. All values were expressed as MEAN±STD. The significant difference between the treatment and control group was estimated using oneway ANOVA with Dennett's test. All results of the statistical analysis were summarized in separate tables.

Compound: C[N+](C)(C)[C@@H](Cc1c[nH]c(=S)[nH]1)C(=O)O [L-Ergothioneine, L-ergothioneine]
- Straub Tail: Absent
- Clonic Convulsions: 4.66 s
- Stupor: 70.33 s
- Tonic Convulsions: 8.00 s
- Recovery: Recovery

Compound: CC[C@@H](C(N)=O)N1CCCC1=O [Levetiracetam, reference compound]
- Straub Tail: Absent
- Clonic Convulsions: 3.33 s
- Stupor: 56.16 s
- Tonic Convulsions: 5.83 s
- Recovery: Recovery

Compound: CCCCCCCCCC(=O)OCC(COC(=O)CCCCCCCCC)OC(=O)CCCCCCCCC [Tridecanoin]
- Straub Tail: Absent
- Clonic Convulsions: 5.00 s
- Stupor: 74.16 s
- Tonic Convulsions: 7.66 s
- Recovery: Recovery
